Reference: PubChem BioAssay (NCI)
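96-well plates; 48 h exposure; 5 concentrations. Endpoints by linear interpolation between flanking doses. Not reached: highest tested concentration assigned. The concentration for full growth arrest is given as TGI.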

Legend:
Assay in all cases: inhibition of tumour cell growth, NCI panel, 48 h
[1] = test system: SK-MEL-28 melanoma
[2] = test system: K-562 leukemia
[3] = test system: A498 renal
[4] = test system: RPMI-8226 leukemia
[5] = test system: SK-MEL-2 melanoma
[6] = test system: COLO 205 colon
[7] = test system: HS 578T breast
[8] = test system: MDA-MB-435
[9] = test system: SNB-19 CNS
[10] = test system: SNB-75 CNS
[11] = test system: HCT-116 colon
[12] = test system: NCI-H226 lung
[13] = test system: DU-145 prostate
[14] = test system: SW-620 colon
[15] = test system: PC-3 prostate
[16] = test system: CAKI-1 renal
[17] = test system: HT29 colon
[18] = test system: UACC-257 melanoma
[19] = test system: A549 NSCLC
[20] = test system: SK-OV-3 ovarian
[21] = test system: OVCAR-5 ovarian
[22] = test system: SF-268 CNS
[23] = test system: UO-31 renal
[24] = test system: BT-549 breast
[25] = test system: SN12C renal
[26] = test system: NCI-H522 lung
[27] = test system: SF-295 CNS
[28] = test system: NCI-H460 lung
[29] = test system: LOX IMVI melanoma
[30] = test system: HCT-15 colon
[31] = test system: 786-0 renal
[32] = test system: OVCAR-8 ovarian
[33] = test system: OVCAR-3 ovarian
[34] = test system: T-47D breast
[35] = test system: UACC-62 melanoma
[36] = test system: HCC-2998 colon
[37] = test system: SF-539 CNS
[38] = test system: RXF 393 renal
[39] = test system: HOP-62 NSCLC
[40] = test system: ACHN renal
[41] = test system: MCF7 breast
[42] = test system: SK-MEL-5 melanoma
[43] = test system: MDA-MB-231 breast
[44] = test system: MOLT-4 leukemia
[45] = test system: CCRF-CEM leukemia
[46] = test system: NCI/ADR-RES ovarian
[47] = test system: HL-60(TB) leukemia
[48] = test system: MALME-3M melanoma
[49] = test system: U251 CNS
[50] = test system: NCI-H23 lung
[51] = test system: TK-10 renal
[52] = test system: HOP-92 NSCLC
[53] = test system: EKVX NSCLC
[54] = test system: SR leukemia
[55] = test system: KM12 colon
[56] = test system: IGROV1 ovarian
[57] = test system: OVCAR-4 ovarian
[58] = test system: M14 melanoma
[59] = test system: MDA-N

CC(=O)O[C@H]1CC[C@@]2(C)C(=CC[C@@H]3[C@@H]2CC[C@]2(C)C(=N/O)/C(=C\c4ccccc4)C[C@@H]32)C1
TGI [1]: > 56.3 µM
TGI [2]: > 100 µM
TGI [3]: 33 µM
TGI [4]: > 100 µM
TGI [5]: 39.2 µM
TGI [6]: 32 µM
TGI [7]: 50.9 µM
TGI [8]: > 33.1 µM
TGI [9]: > 100 µM
TGI [10]: > 100 µM
TGI [11]: > 100 µM
TGI [12]: 44.9 µM
TGI [13]: > 91 µM
TGI [14]: > 60.9 µM
TGI [15]: > 100 µM
TGI [16]: > 100 µM
TGI [17]: > 100 µM
TGI [18]: 37.3 µM
TGI [19]: 97.5 µM
TGI [20]: > 100 µM
TGI [21]: 70.2 µM
TGI [22]: > 80.8 µM
TGI [23]: > 59.2 µM
TGI [24]: > 100 µM
TGI [25]: 38.1 µM
TGI [26]: 21.2 µM
TGI [27]: 67.1 µM
TGI [28]: 97.9 µM
TGI [29]: 26 µM
TGI [30]: > 100 µM
TGI [31]: > 55.4 µM
TGI [32]: > 100 µM
TGI [33]: 54.7 µM
TGI [34]: > 93.7 µM
TGI [35]: 31.9 µM
TGI [36]: 32 µM
TGI [37]: 83.3 µM
TGI [38]: 40 µM
TGI [39]: 71.6 µM
TGI [40]: > 100 µM
TGI [41]: > 100 µM
TGI [42]: 11.4 µM
TGI [43]: 73.2 µM
TGI [44]: > 28.5 µM
TGI [45]: > 100 µM
TGI [46]: > 72.9 µM
TGI [47]: 49.3 µM
TGI [48]: 24.7 µM
TGI [49]: > 81.5 µM
TGI [50]: > 100 µM
TGI [51]: 78.8 µM
TGI [52]: 88.5 µM
TGI [53]: 51.2 µM
TGI [54]: > 42.3 µM
TGI [55]: 10.6 µM
TGI [56]: > 100 µM
TGI [57]: > 100 µM
TGI [58]: 39.3 µM
TGI [59]: 99.4 µM

CCOC(=O)/C(C(N)=O)=C(\O)C(=O)/C(Br)=C(\O)c1ccccc1
TGI [1]: 34.9 µM
TGI [2]: 31.2 µM
TGI [3]: > 100 µM
TGI [4]: 29.4 µM
TGI [5]: 37.4 µM
TGI [6]: 33.4 µM
TGI [7]: 50.1 µM
TGI [8]: 31.6 µM
TGI [9]: > 69.1 µM
TGI [10]: 32.1 µM
TGI [11]: 32 µM
TGI [12]: 51.6 µM
TGI [13]: 39.7 µM
TGI [14]: 35.2 µM
TGI [15]: 31.7 µM
TGI [16]: 24.6 µM
TGI [17]: > 70.8 µM
TGI [18]: 31.8 µM
TGI [19]: 43.5 µM
TGI [20]: > 57.4 µM
TGI [21]: 37.5 µM
TGI [22]: 39.5 µM
TGI [23]: 39.6 µM
TGI [24]: 33.7 µM
TGI [25]: 34.2 µM
TGI [26]: 3.7 µM
TGI [27]: > 100 µM
TGI [28]: 56.1 µM
TGI [29]: 36.3 µM
TGI [30]: 39.8 µM
TGI [31]: 29.7 µM
TGI [32]: 39.5 µM
TGI [33]: 41.4 µM
TGI [34]: 54.4 µM
TGI [35]: 33.3 µM
TGI [36]: 36.6 µM
TGI [37]: 36.5 µM
TGI [38]: 29.6 µM
TGI [39]: 41.5 µM
TGI [40]: 33.3 µM
TGI [41]: 36.9 µM
TGI [42]: 30.5 µM
TGI [43]: 34.2 µM
TGI [44]: 8.33 µM
TGI [45]: 3.54 µM
TGI [46]: 72.9 µM
TGI [47]: 0.248 µM
TGI [48]: 29.2 µM
TGI [49]: 35.3 µM
TGI [50]: 37.3 µM
TGI [51]: 33.2 µM
TGI [52]: 53.7 µM
TGI [53]: 52.8 µM
TGI [54]: 12.1 µM
TGI [55]: 35.3 µM
TGI [56]: 31.1 µM
TGI [57]: 56.5 µM
TGI [58]: 29.3 µM
TGI [59]: 32.2 µM
